Legend:
Assay type in all cases: in vivo
Stellaria media [1] = assay: Example 2: alcohol ethoxylate adjuvants without glyphosate, visual % damage, tracksprayer 300 l/ha
From the text: (§1) The effect of different types of alcohol ethoxylate (branched—Genapol X-series, and unbranched—Genapol O-series, differing degrees of ethoxylation, see Table 3 below for more details), on unwanted vegetation (broadleaf weed and grass species), in the absence of glyphosate, was investigated and compared to untreated (water only) control weeds.
(§2) Troughs (measuring 16 cm by 13 cm by 5 cm) were filled with local field soil. Seeds of Veronica persica, Stellaria media, Trifolium repens and Poa annua were sown 24 days before application of test samples. Plants were grown in the glasshouse at 18 to 20° C. and 60% relative humidity. Application of alcohol ethoxylate test samples was carried out using a tracksprayer, spraying at a rate of 300 l/ha. Plants were kept in glasshouse and visual assessment of the estimated percentage damage to the plant was carried out 1, 7, and 14 days from application.
(§3) Damage was assessed as wilting, desiccation or any other kind of visual injury in comparison to the untreated control (water only).

Poa annua [2] = assay: as above
From the text: as §1, §2, §3

Veronica persica = assay: as above
From the text: as §1, §2, §3

Trifolium repens = assay: as above
From the text: as §1, §2, §3

Stellaria media [3] = assay: Example 1: adjuvants alone, visual % damage, pots in glasshouse
Experimental: (§4) The effect of different adjuvants (see Table 1 below) on the growth of broadleaf weed and grass species was investigated and compared to untreated (water only) control weeds.
(§5) Plates, each with 48 pots measuring 2.7 cm diameter and 5 cm deep, were filled with TKS1 growing media (Floragard, Germany). Seeds of Taraxacum officinale, Stellaria media or Poa annua were sown on the surface (10 to 20 per pot). Plants were grown in glasshouse at a temperature of 18 to 20° C. and at 60% relative humidity.
(§6) Plants were treated 15 (Stellaria, Poa) and 34 (Taraxacum) days after sowing with 60 μl of a 1.25, 2.5, 5 and 10% (w/v) solution of adjuvant using a hand airbrush.
(§7) Visual assessment of the percentage damage to the plant was carried out 1 day and 6 days from application.
as §3

Poa annua [4] = assay: as above
Experimental: as §4, §5, §6, §7, §3

Taraxacum officinale = assay: as above
Experimental: as §4, §5, §6, §7, §3

Oleyl alcohol polyglycol ether with 8 moles of ethoxylation [GenapolO080]
0%: mean % damage 1 daa Stellaria media (Stellaria media [1]; adjuvant 1% w/v) | mean % damage 7 daa Stellaria media (Stellaria media [1]; adjuvant 1% w/v) | mean % damage 14 daa Stellaria media (Stellaria media [1]; adjuvant 1% w/v) | mean % damage 1 daa Stellaria media (Stellaria media [1]; adjuvant 1.5% w/v) | mean % damage 7 daa Stellaria media (Stellaria media [1]; adjuvant 1.5% w/v) | mean % damage 1 daa Stellaria media (Stellaria media [1]; adjuvant 2% w/v) | mean % damage 14 daa Stellaria media (Stellaria media [1]; adjuvant 2% w/v) | mean % damage 1 daa Stellaria media (Stellaria media [1]; adjuvant 2.5% w/v) | mean % damage 7 daa Stellaria media (Stellaria media [1]; adjuvant 2.5% w/v) | mean % damage 1 daa Poa annua (Poa annua [2]; adjuvant 1% w/v) | mean % damage 14 daa Poa annua (Poa annua [2]; adjuvant 1% w/v) | mean % damage 1 daa Poa annua (Poa annua [2]; adjuvant 1.5% w/v) | mean % damage 14 daa Poa annua (Poa annua [2]; adjuvant 1.5% w/v) | mean % damage 1 daa Poa annua (Poa annua [2]; adjuvant 2% w/v) | mean % damage 14 daa Poa annua (Poa annua [2]; adjuvant 2% w/v) | mean % damage 1 daa Poa annua (Poa annua [2]; adjuvant 2.5% w/v) | mean % damage 14 daa Poa annua (Poa annua [2]; adjuvant 2.5% w/v) | mean % damage 1 daa Veronica persica (Veronica persica; adjuvant 1% w/v) | mean % damage 1 daa Veronica persica (Veronica persica; adjuvant 1.5% w/v) | mean % damage 7 daa Veronica persica (Veronica persica; adjuvant 1.5% w/v) | mean % damage 1 daa Veronica persica (Veronica persica; adjuvant 2% w/v) | mean % damage 7 daa Veronica persica (Veronica persica; adjuvant 2% w/v) | mean % damage 14 daa Veronica persica (Veronica persica; adjuvant 2% w/v) | mean % damage 1 daa Veronica persica (Veronica persica; adjuvant 2.5% w/v) | mean % damage 14 daa Veronica persica (Veronica persica; adjuvant 2.5% w/v) | mean % damage 1 daa Trifolium repens (Trifolium repens; adjuvant 1% w/v) | mean % damage 7 daa Trifolium repens (Trifolium repens; adjuvant 1% w/v) | mean % damage 14 daa Trifolium repens (Trifolium repens; adjuvant 1% w/v) | mean % damage 1 daa Trifolium repens (Trifolium repens; adjuvant 1.5% w/v) | mean % damage 7 daa Trifolium repens (Trifolium repens; adjuvant 1.5% w/v) | mean % damage 14 daa Trifolium repens (Trifolium repens; adjuvant 1.5% w/v) | mean % damage 7 daa Trifolium repens (Trifolium repens; adjuvant 2% w/v) | mean % damage 14 daa Trifolium repens (Trifolium repens; adjuvant 2% w/v)
5%: mean % damage 14 daa Stellaria media (Stellaria media [1]; adjuvant 1.5% w/v) | mean % damage 7 daa Stellaria media (Stellaria media [1]; adjuvant 2% w/v) | mean % damage 7 daa Poa annua (Poa annua [2]; adjuvant 1% w/v) | mean % damage 7 daa Poa annua (Poa annua [2]; adjuvant 1.5% w/v) | mean % damage 7 daa Poa annua (Poa annua [2]; adjuvant 2% w/v) | mean % damage 7 daa Poa annua (Poa annua [2]; adjuvant 2.5% w/v) | mean % damage 7 daa Veronica persica (Veronica persica; adjuvant 1% w/v) | mean % damage 7 daa Veronica persica (Veronica persica; adjuvant 2.5% w/v) | mean % damage 1 daa Trifolium repens (Trifolium repens; adjuvant 2% w/v) | mean % damage 1 daa Trifolium repens (Trifolium repens; adjuvant 2.5% w/v)
10%: mean % damage 14 daa Stellaria media (Stellaria media [1]; adjuvant 2.5% w/v) | mean % damage 14 daa Veronica persica (Veronica persica; adjuvant 1% w/v) | mean % damage 14 daa Veronica persica (Veronica persica; adjuvant 1.5% w/v) | mean % damage 7 daa Trifolium repens (Trifolium repens; adjuvant 2.5% w/v) | mean % damage 14 daa Trifolium repens (Trifolium repens; adjuvant 2.5% w/v)

Oleyl alcohol polyglycol ether with 10 moles of ethoxylation [GenapolO100]
15%: avg % damage 1 DAA Stellaria media (Stellaria media [3]; adjuvant 5% w/v)
30%: avg % damage 6 DAA Stellaria media (Stellaria media [3]; adjuvant 5% w/v)
10%: avg % damage 6 DAA Stellaria media (Stellaria media [3]; adjuvant 2.5% w/v) | avg % damage 6 DAA Poa annua (Poa annua [4]; adjuvant 2.5% w/v) | avg % damage 6 DAA Poa annua (Poa annua [4]; adjuvant 5% w/v) | avg % damage 6 DAA Poa annua (Poa annua [4]; adjuvant 10% w/v)
55%: avg % damage 6 DAA Stellaria media (Stellaria media [3]; adjuvant 10% w/v)
0%: avg % damage 1 DAA Stellaria media (Stellaria media [3]; adjuvant 1.25% w/v) | avg % damage 1 DAA Poa annua (Poa annua [4]; adjuvant 1.25% w/v) | avg % damage 1 DAA Poa annua (Poa annua [4]; adjuvant 2.5% w/v) | avg % damage 1 DAA Poa annua (Poa annua [4]; adjuvant 5% w/v) | avg % damage 1 DAA Poa annua (Poa annua [4]; adjuvant 10% w/v) | avg % damage 1 DAA Taraxacum officinale (Taraxacum officinale; adjuvant 1.25% w/v) | avg % damage 6 DAA Taraxacum officinale (Taraxacum officinale; adjuvant 1.25% w/v) | avg % damage 6 DAA Taraxacum officinale (Taraxacum officinale; adjuvant 2.5% w/v) | avg % damage 6 DAA Taraxacum officinale (Taraxacum officinale; adjuvant 5% w/v) | avg % damage 6 DAA Taraxacum officinale (Taraxacum officinale; adjuvant 10% w/v)
50%: avg % damage 1 DAA Stellaria media (Stellaria media [3]; adjuvant 10% w/v)
5%: avg % damage 6 DAA Stellaria media (Stellaria media [3]; adjuvant 1.25% w/v) | avg % damage 1 DAA Stellaria media (Stellaria media [3]; adjuvant 2.5% w/v) | avg % damage 6 DAA Poa annua (Poa annua [4]; adjuvant 1.25% w/v) | avg % damage 1 DAA Taraxacum officinale (Taraxacum officinale; adjuvant 2.5% w/v) | avg % damage 1 DAA Taraxacum officinale (Taraxacum officinale; adjuvant 5% w/v) | avg % damage 1 DAA Taraxacum officinale (Taraxacum officinale; adjuvant 10% w/v)

Oleyl alcohol polyglycol ether with 15 moles of ethoxylation [GenapolO150]
0%: avg % damage 1 DAA Stellaria media (Stellaria media [3]; adjuvant 1.25% w/v) | avg % damage 1 DAA Stellaria media (Stellaria media [3]; adjuvant 2.5% w/v) | avg % damage 1 DAA Poa annua (Poa annua [4]; adjuvant 1.25% w/v) | avg % damage 6 DAA Poa annua (Poa annua [4]; adjuvant 1.25% w/v) | avg % damage 1 DAA Poa annua (Poa annua [4]; adjuvant 2.5% w/v) | avg % damage 6 DAA Poa annua (Poa annua [4]; adjuvant 2.5% w/v) | avg % damage 1 DAA Poa annua (Poa annua [4]; adjuvant 5% w/v) | avg % damage 6 DAA Poa annua (Poa annua [4]; adjuvant 5% w/v) | avg % damage 1 DAA Poa annua (Poa annua [4]; adjuvant 10% w/v) | avg % damage 6 DAA Poa annua (Poa annua [4]; adjuvant 10% w/v) | avg % damage 1 DAA Taraxacum officinale (Taraxacum officinale; adjuvant 1.25% w/v) | avg % damage 1 DAA Taraxacum officinale (Taraxacum officinale; adjuvant 2.5% w/v) | avg % damage 6 DAA Taraxacum officinale (Taraxacum officinale; adjuvant 2.5% w/v)
13%: avg % damage 1 DAA Stellaria media (Stellaria media [3]; adjuvant 5% w/v)
60%: avg % damage 6 DAA Stellaria media (Stellaria media [3]; adjuvant 10% w/v)
20%: avg % damage 6 DAA Stellaria media (Stellaria media [3]; adjuvant 2.5% w/v)
5%: avg % damage 6 DAA Stellaria media (Stellaria media [3]; adjuvant 1.25% w/v) | avg % damage 1 DAA Taraxacum officinale (Taraxacum officinale; adjuvant 5% w/v) | avg % damage 1 DAA Taraxacum officinale (Taraxacum officinale; adjuvant 10% w/v)
3%: avg % damage 6 DAA Taraxacum officinale (Taraxacum officinale; adjuvant 1.25% w/v) | avg % damage 6 DAA Taraxacum officinale (Taraxacum officinale; adjuvant 5% w/v) | avg % damage 6 DAA Taraxacum officinale (Taraxacum officinale; adjuvant 10% w/v)
43%: avg % damage 1 DAA Stellaria media (Stellaria media [3]; adjuvant 10% w/v)
30%: avg % damage 6 DAA Stellaria media (Stellaria media [3]; adjuvant 5% w/v)

Oleyl alcohol polyglycol ether with 20 moles of ethoxylation [GenapolO200]
5%: avg % damage 6 DAA Stellaria media (Stellaria media [3]; adjuvant 2.5% w/v) | avg % damage 6 DAA Stellaria media (Stellaria media [3]; adjuvant 5% w/v) | avg % damage 6 DAA Taraxacum officinale (Taraxacum officinale; adjuvant 5% w/v)
10%: avg % damage 1 DAA Taraxacum officinale (Taraxacum officinale; adjuvant 10% w/v)
3%: avg % damage 6 DAA Taraxacum officinale (Taraxacum officinale; adjuvant 1.25% w/v)
0%: avg % damage 1 DAA Stellaria media (Stellaria media [3]; adjuvant 1.25% w/v) | avg % damage 6 DAA Stellaria media (Stellaria media [3]; adjuvant 1.25% w/v) | avg % damage 1 DAA Stellaria media (Stellaria media [3]; adjuvant 2.5% w/v) | avg % damage 1 DAA Stellaria media (Stellaria media [3]; adjuvant 5% w/v) | avg % damage 1 DAA Poa annua (Poa annua [4]; adjuvant 1.25% w/v) | avg % damage 6 DAA Poa annua (Poa annua [4]; adjuvant 1.25% w/v) | avg % damage 1 DAA Poa annua (Poa annua [4]; adjuvant 2.5% w/v) | avg % damage 6 DAA Poa annua (Poa annua [4]; adjuvant 2.5% w/v) | avg % damage 1 DAA Poa annua (Poa annua [4]; adjuvant 5% w/v) | avg % damage 6 DAA Poa annua (Poa annua [4]; adjuvant 5% w/v) | avg % damage 1 DAA Poa annua (Poa annua [4]; adjuvant 10% w/v) | avg % damage 6 DAA Poa annua (Poa annua [4]; adjuvant 10% w/v) | avg % damage 1 DAA Taraxacum officinale (Taraxacum officinale; adjuvant 1.25% w/v) | avg % damage 1 DAA Taraxacum officinale (Taraxacum officinale; adjuvant 2.5% w/v) | avg % damage 6 DAA Taraxacum officinale (Taraxacum officinale; adjuvant 2.5% w/v) | avg % damage 1 DAA Taraxacum officinale (Taraxacum officinale; adjuvant 5% w/v) | avg % damage 6 DAA Taraxacum officinale (Taraxacum officinale; adjuvant 10% w/v)
15%: avg % damage 1 DAA Stellaria media (Stellaria media [3]; adjuvant 10% w/v)
30%: avg % damage 6 DAA Stellaria media (Stellaria media [3]; adjuvant 10% w/v)

Tri-sec-butylphenol polyglycol ether with 6 Moles of ethoxylation [SAPOGENAT T 060]
0%: avg % damage 1 DAA Stellaria media (Stellaria media [3]; adjuvant 1.25% w/v) | avg % damage 6 DAA Stellaria media (Stellaria media [3]; adjuvant 1.25% w/v) | avg % damage 1 DAA Stellaria media (Stellaria media [3]; adjuvant 2.5% w/v) | avg % damage 6 DAA Stellaria media (Stellaria media [3]; adjuvant 2.5% w/v) | avg % damage 1 DAA Stellaria media (Stellaria media [3]; adjuvant 5% w/v) | avg % damage 1 DAA Stellaria media (Stellaria media [3]; adjuvant 10% w/v) | avg % damage 1 DAA Poa annua (Poa annua [4]; adjuvant 1.25% w/v) | avg % damage 1 DAA Poa annua (Poa annua [4]; adjuvant 2.5% w/v) | avg % damage 1 DAA Poa annua (Poa annua [4]; adjuvant 5% w/v) | avg % damage 1 DAA Poa annua (Poa annua [4]; adjuvant 10% w/v) | avg % damage 1 DAA Taraxacum officinale (Taraxacum officinale; adjuvant 1.25% w/v) | avg % damage 6 DAA Taraxacum officinale (Taraxacum officinale; adjuvant 1.25% w/v) | avg % damage 1 DAA Taraxacum officinale (Taraxacum officinale; adjuvant 2.5% w/v) | avg % damage 6 DAA Taraxacum officinale (Taraxacum officinale; adjuvant 2.5% w/v) | avg % damage 1 DAA Taraxacum officinale (Taraxacum officinale; adjuvant 5% w/v) | avg % damage 6 DAA Taraxacum officinale (Taraxacum officinale; adjuvant 5% w/v) | avg % damage 1 DAA Taraxacum officinale (Taraxacum officinale; adjuvant 10% w/v) | avg % damage 6 DAA Taraxacum officinale (Taraxacum officinale; adjuvant 10% w/v)
20%: avg % damage 6 DAA Stellaria media (Stellaria media [3]; adjuvant 5% w/v) | avg % damage 6 DAA Stellaria media (Stellaria media [3]; adjuvant 10% w/v)
25%: avg % damage 6 DAA Poa annua (Poa annua [4]; adjuvant 5% w/v)
35%: avg % damage 6 DAA Poa annua (Poa annua [4]; adjuvant 10% w/v)
5%: avg % damage 6 DAA Poa annua (Poa annua [4]; adjuvant 1.25% w/v) | avg % damage 6 DAA Poa annua (Poa annua [4]; adjuvant 2.5% w/v)

— patent US20130252816A1, “HERBICIDAL COMPOSITION AND USE THEREOF” (Syngenta Crop Protection LLC, priority 2010, published 2013)
